Among the data in patent US5496947A, “Quinolone carboxylic acid derivatives” (Dong Wha Pharmaceutical Industrial Co., Ltd., priority 1994, dated 1996) are MIC values, retold here.

Each structure is given as a SMILES string. Like-named read-outs stand apart in the source and are kept apart here.

Common to all, as to format: cell-based
Test [1] relates to Acinetobacter calcoaceticus. The test is described as follows: MIC, 2-fold dilution method in micro-well plate, A. calcoaceticus. The procedure: (§1) The in vitro antibiotic activity of the present compound is measured using 2-fold dilution method with a micro-well plate and the bacteria are inoculated in about 10^5 cfu/ml after an overnight culture in a brain-heart infusion (BHI) broth at 37° C. The novel compounds of the present invention are converted to a hydrochloride salt form and diluted with a sterilized distilled water to make 10 mg/ml aqueous solution. After the mother liquor wherein the compound is diluted to the two-fold concentration has been obtained in the form of an aqueous solution, the respective 0.1 ml of diluted liquor is transferred to a well and is inoculated with 0.1 ml of the culture fluid to make about (10^5 -10^6)/2 cfu/ml.
(§2) After cultivation at 37° C., the minimum inhibitory concentration (MIC) is measured and recorded in Table I-V.
Table I-V show the minimum inhibitory concentrations (MIC). […]

Test [2] relates to Citrobacter freundii ATCC 8090. The test is described as follows: MIC, 2-fold dilution method in micro-well plate, C. freundii. The procedure:
as §1, §2
(§3) Table I-V show the minimum inhibitory concentrations (MIC).
Citrobacter freundii ATCC 8090

Test [3] concerns Enterobacter aerogenes ATCC 13048. The test is described as follows: MIC, 2-fold dilution method in micro-well plate, E. aerogenes. To be noted: Klebsiella aerogenes. The protocol: as §1, §2, §3
Enterobacter aerogenes ATCC 13048

For a further test, the system named is Enterobacter cloacae. As to the kind of experiment: MIC, 2-fold dilution method in micro-well plate, E. cloacae. To be noted: read-out: Minimum Inhibitory Concentration. The procedure:
as §1, §2, §3
Enterobacter cloacae ATCC 23355

Test [4] has as its system Escherichia coli ATCC 25922. The test is described as follows: MIC, 2-fold dilution method in micro-well plate, E. coli. The protocol:
as §1, §2, §3
Escherichia coli ATCC 25922

Test [5] relates to Haemophilus influenza ATCC 35056. The test is described as follows: MIC, 2-fold dilution method in micro-well plate, H. influenzae. Particulars: H. influenzae ATCC35056, 37° C.; read-out: Minimum Inhibitory Concentration. The protocol: as §1, §2, §3
Haemophilus influenza ATCC 35056

In test [6] the test system is Klebsiella pneumoniae ATCC 13883. The test is described as follows: MIC, 2-fold dilution method in micro-well plate, K. pneumoniae. The procedure: as §1, §2, §3
Klebsiella pneumoniae ATCC 13883

The subject of test [7] is Proteus vulgaris ATCC 13315. The test is described as follows: MIC, 2-fold dilution method in micro-well plate, P. vulgaris. The procedure: as §1, §2, §3
Proteus vulgaris ATCC 13315

Test [8] deals with Pseudomonas aeruginosa ATCC 27853. The test is described as follows: MIC, 2-fold dilution method in micro-well plate, P. aeruginosa. To be noted: P. aerugirnosa ATCC27853, 37° C., read-out: Minimum Inhibitory Concentration. The procedure:
as §1, §2, §3
Pseudomonas aeruginosa ATCC 27853

In test [9] the test system is Salmonella typhimurium ATCC 14028. The test is described as follows: MIC, 2-fold dilution method in micro-well plate, S. typhimurium. Particulars: Salmonella enterica, read-out: Minimum Inhibitory Concentration. The procedure:
as §1, §2, §3
Salmonella typhimurium ATCC 14028

The test system of test [10] is Shigella flexneri ATCC 12022. The test is described as follows: MIC, 2-fold dilution method in micro-well plate, S. flexneri. To be noted: S. flexneri ATCC12022, 37° C., read-out: Minimum Inhibitory Concentration. The protocol: as §1, §2, §3
Shigella flexneri ATCC 12022

The subject of test [11] is Shigella sonnei ATCC 25931. The test is described as follows: MIC, 2-fold dilution method in micro-well plate, S. sonnei. Particulars: S. sonnei ATCC25931, 37° C., read-out: Minimum Inhibitory Concentration. The procedure:
as §1, §2, §3
Shigella sonnei ATCC 25931

Test [12] relates to Serratia marcescens ATCC 8100. As to the kind of experiment: MIC, 2-fold dilution method in micro-well plate, S. marcescens. The protocol:
as §1, §2, §3
Serratia marcescens ATCC 8100

Test [13] has as its system Streptococcus faecalis ATCC 19433. As to the kind of experiment: MIC, 2-fold dilution method in micro-well plate, S. faecalis ATCC 19433. To be noted: Enterococcus faecalis; S. faecalis ATCC19433, 37° C.; read-out: Minimum Inhibitory Concentration. The protocol:
as §1, §2, §3
Streptococcus faecalis ATCC 19433

Test [14] has as its system Streptococcus faecalis ATCC 29212. The test is described as follows: MIC, 2-fold dilution method in micro-well plate, S. faecalis ATCC 29212. Particulars: Enterococcus faecalis; S. faecalis ATCC29212, 37° C.; read-out: Minimum Inhibitory Concentration. The procedure:
as §1, §2, §3
Streptococcus faecalis ATCC 29212

The subject of test [15] is Streptococcus pneumoniae ATCC 6303. As to the kind of experiment: MIC, 2-fold dilution method in micro-well plate, S. pneumoniae. To be noted: S. pneuinoniae ATCC6303, 37° C., read-out: Minimum Inhibitory Concentration. The procedure: as §1, §2, §3
Streptococcus pneumoniae ATCC 6303

The subject of test [16] is Streptococcus pyrogens ATCC 19615. As to the kind of experiment: MIC, 2-fold dilution method in micro-well plate, S. pyrogens. Particulars: S. pyrogenes ATCC19615, 37° C., read-out: Minimum Inhibitory Concentration. The protocol: as §1, §2, §3
Streptococcus pyrogens ATCC 19615

Where [17] appears, read: A. calcoaceticus ATCC8090 (as in tables), 37° C., read-out: Minimum Inhibitory Concentration.
[18] abbreviates: C. freundii ATCC8090, 37° C., read-out: Minimum Inhibitory Concentration.
Where [19] appears, read: E. coli ATCC25922, 37° C., read-out: Minimum Inhibitory Concentration.
Setting [20] is: K. pneumoniae ATCC13883, 37° C., read-out: Minimum Inhibitory Concentration.
[21] abbreviates: P. vulgaris ATCC13315, 37° C., read-out: Minimum Inhibitory Concentration.
[22] abbreviates: S. marcescens ATCC8100, 37° C., read-out: Minimum Inhibitory Concentration.
The mark [23] stands for this setting: ATCC8090, read-out: Minimum Inhibitory Concentration.
[24] abbreviates: ATCC13048, read-out: Minimum Inhibitory Concentration.
[25] abbreviates: ATCC13883, read-out: Minimum Inhibitory Concentration.
The mark [26] stands for this setting: ATCC13315, read-out: Minimum Inhibitory Concentration.

As to `Cl.NC1CCN(c2nc3c(cc2F)c(=O)c(C(=O)O)cn3-c2ccc(F)cn2)C1` (centres unmarked) [Example 16, 1-(5-fluoro-2-pyridyl)-6-fluoro-7-(3-amino-1-pyrrolidinyl)-1,4-dihydro-4-oxo-1,8-naphthyridine-3-carboxylic acid hydrochloride], the MIC was 0.156 µg/mL in test [1] (setting [17]); 0.078 µg/mL in test [2] (setting [18]); 0.313 µg/mL in [3] (E. aerogenes ATCC13048, 37° C., read-out: Minimum Inhibitory Concentration); 0.156 µg/mL in the test with Enterobacter cloacae (E. cloacae ATCC23355 (as in tables), 37° C.); 0.078 µg/mL in [4] (setting [19]); 0.078 µg/mL in [5]. The MIC in test [6] (setting [20]) was found to be 0.078 µg/mL; in test [7] (setting [21]) it was 0.078 µg/mL; in test [8], 0.156 µg/mL; in test [9] (S. typhisurium ATCC14028, 37° C.), 0.313 µg/mL; in test [10], 0.039 µg/mL; in test [11], 0.02 µg/mL. Moreover, the MIC worked out at 0.078 µg/mL in [12] (setting [22]); 1.25 µg/mL in test [13]; 0.625 µg/mL in test [14]; 1.25 µg/mL in test [15]; 2.5 µg/mL in test [16].
With `Cl.O=C(O)c1cn(-c2ccc(F)cn2)c2cc(N3CCNCC3)c(F)cc2c1=O` [Example 17, 1-(5-fluoro-2-pyridyl)-6-fluoro-7-(1-piperazinyl)-1,4-dihydro-4-oxoquinoline-3-carboxylic acid hydrochloride], the MIC in test [1] (setting [17]) was 2.5 µg/mL; in test [2] (setting [23]), 1.25 µg/mL; in test [3] (setting [24]) it was 1.25 µg/mL; in the test with Enterobacter cloacae, 1.25 µg/mL; in [4] (setting [19]) it was 0.313 µg/mL; in [5], 1.25 µg/mL. Further, the MIC stood at 0.625 µg/mL in [6] (setting [25]); 0.625 µg/mL in [7] (setting [26]); 1.25 µg/mL in test [8]; 1.25 µg/mL in test [9]; 0.625 µg/mL in [10]; 0.625 µg/mL in test [11]. Further, the MIC in test [12] (setting [22]) was determined as 2.5 µg/mL; in test [13], 5 µg/mL; in [14] it was 2.5 µg/mL; in [15] it was 5 µg/mL; in test [16] it was 5 µg/mL.
For `CC1CN(c2cc3c(cc2F)c(=O)c(C(=O)O)cn3-c2ccc(F)cn2)CC(C)N1.Cl` (centres unmarked) [Example 20, 1-(5-fluoro-2-pyridyl)-6-fluoro-7-(3,5-dimethyl-1-piperazinyl)-1,4-dihydro-4-oxoquinoline-3-carboxylic acid hydrochloride], the MIC in [1] (setting [23]) was 1.25 µg/mL; in [2] (setting [23]), 0.625 µg/mL; in test [3] (setting [24]), 1.25 µg/mL; in the test with Enterobacter cloacae it was 0.625 µg/mL; in test [4] (ATCC25922, read-out: Minimum Inhibitory Concentration) it was 0.625 µg/mL; in test [5], 1.25 µg/mL. The MIC amounted to 0.625 µg/mL in test [6] (setting [25]); 0.625 µg/mL in [7] (setting [26]); 1.25 µg/mL in [8]; 1.25 µg/mL in test [9]; 0.625 µg/mL in test [10]; 0.313 µg/mL in [11]. For the same compound, the MIC amounted to 0.625 µg/mL in [12] (ATCC8100, read-out: Minimum Inhibitory Concentration); 5 µg/mL in [13]; 2.5 µg/mL in test [14]; 5 µg/mL in test [15]; 10 µg/mL in test [16].
With `Cl.NC1CCN(c2cc3c(cc2F)c(=O)c(C(=O)O)cn3-c2ccc(F)cn2)C1` (centres unmarked) [Example 21, 1-(5-fluoro-2-pyridyl)-6-fluoro-7-(3-amino-1-pyrrolidinyl)-1,4-dihydro-4-oxoquinoline-3-carboxylic acid hydrochloride], the MIC in test [1] (setting [23]) is 0.156 µg/mL; in [2] (setting [18]) it was 0.078 µg/mL; in test [3] (setting [24]), 0.156 µg/mL; in the test on Enterobacter cloacae it was 0.156 µg/mL; in test [4] (setting [19]) it was 0.078 µg/mL; in test [5] it was 0.078 µg/mL. Further, the MIC in [6] (setting [20]) is 0.078 µg/mL; in test [7] (setting [21]) it was 0.078 µg/mL; in test [8] it was 0.313 µg/mL; in test [9] it was 0.156 µg/mL; in [10] it was 0.078 µg/mL; in test [11], 0.02 µg/mL. The MIC in test [12] (setting [22]) stood at 0.078 µg/mL; in test [13], 1.25 µg/mL; in [14] it was 1.25 µg/mL; in test [15] it was 2.5 µg/mL; in [16], 2.5 µg/mL.
